Measured values reported in patent US20230015308A1, “SUBSTITUTED THIAZOLE AROMATIC RING-BASED COMPOUND AND PREPARATION METHOD THEREFOR, HERBICIDAL COMPOSITION AND USE THEREOF” (QINGDAO KINGAGROOT CHEMICAL COMPOUND CO., LTD., priority 2019, published 2023).

What was measured:
Assay in all cases: Weeding effect in post-emergence stage (greenhouse pot test)
Format in all cases: in vivo
Conditions in all cases: 15 g a.i./ha, 3 weeks after application
Alopecurus japonicus = test system: Alopecurus japonicus
Source text: (§1) The activity level criteria for plant damage (i.e., growth control rate) are as follows:
(§2) Level 5: growth control rate is above 85%;
(§3) Level 4: growth control rate is greater than or equal to 60% and less than 85%;
(§4) Level 3: growth control rate is greater than or equal to 40% and less than 60%;
(§5) Level 2: growth control rate is greater than or equal to 20% and less than 40%;
(§6) Level 1: growth control rate is greater than or equal to 5% and less than 20%;
(§7) Level 0: growth control rate is less than 5%.
(§8) The above growth control rates are fresh weight control rates.
(§9) Experiment on weeding effect in post-emergence stage:
(§10) Monocotyledonous and dicotyledonous weed seeds (Descurainia sophia, Capsella bursa-pastoris, Abutilon theophrasti, Galium aparine, Stellaria media, Lithospermum arvense, Rorippa indica, Alopecurus aequalis, Alopecurus japonicus, Beckmannia syzigachne, Sclerochloa dura, Conyza Canadensis, Phleum paniculatum, Veronica didyma Tenore, Eleusine indica, Bromus japonicus, Aegilops tauschii, Phalaris arundinacea, Amaranthus retroflexus, Chenopodium album, Commelina communis, Sonchus arvensis, Convolvulus arvensis, Cirsium setosum, Solanum nigrum, Acalypha australis, Digitaria sanguinalis, Echinochloa crusgalli, Setaria viridis, Setaria glauca, Leptochloa chinensis, Monochoria vaginalis, Sagittaria trifolia, Scirpus juncoides, Cyperus rotundus, Cyperus iria, Cyperus difformis, Fimbristylis, Portulaca oleracea, Xanthium sibiricum, Pharbitis nil) and major crop seeds (wheat, corn, rice, soybean, cotton, oilseed rape, millet, sorghum, potato, sesame, ricinus) were placed in plastic pots filled with soil, then covered with 0.5-2 cm of soil, allowed to grow in a good greenhouse environment. After 2 weeks of sowing, the test plants were treated in the 2-3 leaf stage. The tested compounds of the present invention were respectively dissolved in acetone, then added with Tween 80 and 1.5 liter/ha of emulsifiable concentrate of methyl oleate as synergist, diluted with a certain amount of water to obtain a solution with a certain concentration, and sprayed with a spray tower onto the plants. After the application, the plants were cultured for 3 weeks in the greenhouse, and then the experimental results of the weeding were counted. The doses of the used compounds were 500, 250, 125, 60, 15 g a.i./ha, and the averages were obtained by repeating for three times.

Setaria viridis = test system: Setaria viridis
Source text: as §1, §2, §3, §4, §5, §6, §7, §8, §9, §10

Galium aparine = test system: Galium aparine
Source text: as §1, §2, §3, §4, §5, §6, §7, §8, §9, §10

Amaranthus retroflexus = test system: Amaranthus retroflexus
Source text: as §1, §2, §3, §4, §5, §6, §7, §8, §9, §10

Abutilon theophrasti = test system: Abutilon theophrasti
Source text: as §1, §2, §3, §4, §5, §6, §7, §8, §9, §10

Echinochloa crusgalli = test system: Echinochloa crusgalli
Source text: as §1, §2, §3, §4, §5, §6, §7, §8, §9, §10

Veronica didyma Tenore = test system: Veronica didyma Tenore
Source text: as §1, §2, §3, §4, §5, §6, §7, §8, §9, §10

Beckmannia syzigachne = test system: Beckmannia syzigachne
Source text: as §1, §2, §3, §4, §5, §6, §7, §8, §9, §10

Digitaria sanguinalis = test system: Digitaria sanguinalis
Source text: as §1, §2, §3, §4, §5, §6, §7, §8, §9, §10

## C#CCOC(=O)c1cnc(-c2cc(-n3c(=O)cc(C(F)(F)F)n(C)c3=O)c(F)cc2Cl)s1 [1-12]
Alopecurus japonicus
  Alopecurus japonicus, activity level (fresh weight growth control rate): 3 (Level 3: growth control rate is greater than or equal to 40% and less than 60%)
Setaria viridis
  Setaria viridis, activity level (fresh weight growth control rate): 5 (Level 5: growth control rate is above 85%)
Galium aparine
  Galium aparine, activity level (fresh weight growth control rate): 5 (Level 5: growth control rate is above 85%)
Amaranthus retroflexus
  Amaranthus retroflexus, activity level (fresh weight growth control rate): 5 (Level 5: growth control rate is above 85%)
Abutilon theophrasti
  Abutilon theophrasti, activity level (fresh weight growth control rate): 5 (Level 5: growth control rate is above 85%)
Echinochloa crusgalli
  Echinochloa crusgalli, activity level (fresh weight growth control rate): 5 (Level 5: growth control rate is above 85%)
Veronica didyma Tenore
  Veronica didyma Tenore, activity level (fresh weight growth control rate): 5 (Level 5: growth control rate is above 85%)
Beckmannia syzigachne
  Beckmannia syzigachne, activity level (fresh weight growth control rate): 3 (Level 3: growth control rate is greater than or equal to 40% and less than 60%)
Digitaria sanguinalis
  Digitaria sanguinalis, activity level (fresh weight growth control rate): 5 (Level 5: growth control rate is above 85%)

## Cn1c(C(F)(F)F)cc(=O)n(-c2cc(-c3ncc(C(=O)OCC4CCCO4)s3)c(Cl)cc2F)c1=O (stereo not drawn) [1-33]
Alopecurus japonicus
  Alopecurus japonicus, activity level (fresh weight growth control rate): 3 (Level 3: growth control rate is greater than or equal to 40% and less than 60%)
Setaria viridis
  Setaria viridis, activity level (fresh weight growth control rate): 5 (Level 5: growth control rate is above 85%)
Galium aparine
  Galium aparine, activity level (fresh weight growth control rate): 5 (Level 5: growth control rate is above 85%)
Amaranthus retroflexus
  Amaranthus retroflexus, activity level (fresh weight growth control rate): 5 (Level 5: growth control rate is above 85%)
Abutilon theophrasti
  Abutilon theophrasti, activity level (fresh weight growth control rate): 5 (Level 5: growth control rate is above 85%)
Echinochloa crusgalli
  Echinochloa crusgalli, activity level (fresh weight growth control rate): 5 (Level 5: growth control rate is above 85%)
Veronica didyma Tenore
  Veronica didyma Tenore, activity level (fresh weight growth control rate): 5 (Level 5: growth control rate is above 85%)
Beckmannia syzigachne
  Beckmannia syzigachne, activity level (fresh weight growth control rate): 3 (Level 3: growth control rate is greater than or equal to 40% and less than 60%)
Digitaria sanguinalis
  Digitaria sanguinalis, activity level (fresh weight growth control rate): 5 (Level 5: growth control rate is above 85%)

## CCOC(=O)c1cnc(-c2cc(-n3c(=S)cc(C(F)(F)F)n(C)c3=O)c(F)cc2Cl)s1 [1-103]
Alopecurus japonicus
  Alopecurus japonicus, activity level (fresh weight growth control rate): 4 (Level 4: growth control rate is greater than or equal to 60% and less than 85%)
Setaria viridis
  Setaria viridis, activity level (fresh weight growth control rate): 5 (Level 5: growth control rate is above 85%)
Galium aparine
  Galium aparine, activity level (fresh weight growth control rate): 5 (Level 5: growth control rate is above 85%)
Amaranthus retroflexus
  Amaranthus retroflexus, activity level (fresh weight growth control rate): 5 (Level 5: growth control rate is above 85%)
Abutilon theophrasti
  Abutilon theophrasti, activity level (fresh weight growth control rate): 5 (Level 5: growth control rate is above 85%)
Echinochloa crusgalli
  Echinochloa crusgalli, activity level (fresh weight growth control rate): 5 (Level 5: growth control rate is above 85%)
Veronica didyma Tenore
  Veronica didyma Tenore, activity level (fresh weight growth control rate): 5 (Level 5: growth control rate is above 85%)
Beckmannia syzigachne
  Beckmannia syzigachne, activity level (fresh weight growth control rate): 4 (Level 4: growth control rate is greater than or equal to 60% and less than 85%)
Digitaria sanguinalis
  Digitaria sanguinalis, activity level (fresh weight growth control rate): 5 (Level 5: growth control rate is above 85%)
